Test results taken from the NIST ThermoML archive (doi:10.1016/j.jct.2013.12.021).
Numbers after ± are expanded uncertainties.

Assay: Boiling temperature at pressure P
Details: 101.33 kPa; Liquid; Ebulliometric method (Recirculating still)

- Boiling temperature at pressure P: 64.50 ± 0.1 °C
Structure (SMILES): CO [methanol]
